Data: PubChem BioAssay AID330 (DTP/NCI, 2004)
Several values for one entry are separate records, joined by “and”; a condition that tells them apart may be missing. Equal entries are not always repeated. Inconclusive results and toxic doses are left out.

Test system: P388 leukemia ip, CD2F1 mice, survival T/C
Experiment: NCI In Vivo Anticancer Drug Screen. Data for tumor model P388 Leukemia (intraperitoneal) in CD2F1 (CDF1) mice
Conditions: endpoint: median survival time, higher = longer survival
Summary of the method: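 Mice carrying the transplanted tumor received test compound or vehicle. Survival was recorded in each group, and the value is the treated-group measurement divided by that of the vehicle-treated control group.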

[1] = dose: 50.0 mg/kg/injection, schedule: Q01DX005 (ip), vehicle: Klucel (hydroxypropylcellulose) (HPC)
[2] = dose: 100.0 mg/kg/injection, schedule: Q01DX005 (ip), vehicle: Klucel (hydroxypropylcellulose) (HPC)
[3] = dose: 50.0 mg/kg/injection, schedule: Q01DX009 (ip), vehicle: Klucel (hydroxypropylcellulose) (HPC)
[4] = dose: 100.0 mg/kg/injection, schedule: Q01DX009 (ip), vehicle: Klucel (hydroxypropylcellulose) (HPC)
[5] = dose: 200.0 mg/kg/injection, schedule: Q01DX009 (ip), vehicle: Klucel (hydroxypropylcellulose) (HPC)
[6] = dose: 50.0 mg/kg/injection, schedule: Q01DX009 (ip), vehicle: saline with Tween-80
[7] = dose: 100.0 mg/kg/injection, schedule: Q01DX009 (ip), vehicle: saline with Tween-80
[8] = dose: 100.0 mg/kg/injection, schedule: Q01DX009 (ip), vehicle: saline
[9] = dose: 200.0 mg/kg/injection, schedule: Q01DX009 (ip), vehicle: saline
[10] = dose: 100.0 mg/kg/injection, schedule: Q04DX002 (ip), vehicle: saline with Tween-80
[11] = dose: 200.0 mg/kg/injection, schedule: Q04DX002 (ip), vehicle: saline with Tween-80
[12] = dose: 50.0 mg/kg/injection, schedule: Q01DX009 (ip), vehicle: saline

C=CCC1=C(CC)C(=O)c2ccccc2C1=O
T/C [1]: 100 % of control
T/C [2]: 100 % of control
T/C (dose: 200.0 mg/kg/injection, schedule: Q01DX005 (ip), vehicle: Klucel (hydroxypropylcellulose) (HPC)): 111 % of control

C/C(=N\NS(=O)(=O)c1ccc(C)cc1)c1c(C)noc1C
T/C [3]: 94 % of control
T/C [4]: 99 % of control
T/C [5]: 100 % of control

NC(N)=NS(=O)(=O)c1ccc(N=NC2=C(O)C(c3ccccc3)N(c3ccccc3)C2=O)cc1 (stereo unspecified)
T/C (dose: 100.0 mg/kg/injection, schedule: Q01DX001 (ip), vehicle: saline with Tween-80): 102 % of control
T/C (dose: 200.0 mg/kg/injection, schedule: Q01DX001 (ip), vehicle: saline with Tween-80): 102 % of control
T/C (dose: 400.0 mg/kg/injection, schedule: Q01DX001 (ip), vehicle: saline with Tween-80): 90 % of control

CCOC(=O)C1(n2[nH]c(=O)n(-c3ccccc3)c2=O)CC(C)(C)OC1=O (stereo unspecified)
T/C [3]: 106 % of control
T/C [4]: 98 % of control
T/C [5]: 98 % of control

Cn1nnc(-c2ccc(C(=O)O)cc2)n1
T/C [1]: 91 % of control
T/C [2]: 91 % of control

CC(C)=Nn1c(=O)oc2cc(Cl)ccc2c1=O
T/C (dose: 60.0 mg/kg/injection, schedule: Q01DX005 (ip), vehicle: Klucel (hydroxypropylcellulose) (HPC)): 95 % of control
T/C (dose: 120.0 mg/kg/injection, schedule: Q01DX005 (ip), vehicle: Klucel (hydroxypropylcellulose) (HPC)): 100 % of control
T/C (dose: 240.0 mg/kg/injection, schedule: Q01DX005 (ip), vehicle: Klucel (hydroxypropylcellulose) (HPC)): 93 % of control

O=C1CCC(N2C(=O)c3ccccc3C2=O)C(=O)N1 (stereo unspecified)
T/C [6]: 100 % of control
T/C [7]: 92 % of control

CSCCC(N)C(=O)O (stereo unspecified)
T/C (dose: 25.0 mg/kg/injection, schedule: Q01DX005 (ip), vehicle: saline): 102 % of control
T/C (dose: 25.0 mg/kg/injection, schedule: Q01DX009 (ip), vehicle: other): 107 % of control
T/C (dose: 25.0 mg/kg/injection, schedule: Q01DX009 (ip), vehicle: saline with Tween-80): 103 % of control
T/C (dose: 37.5 mg/kg/injection, schedule: Q01DX009 (ip), vehicle: Klucel (hydroxypropylcellulose) (HPC)): 122 % of control
T/C (dose: 40.0 mg/kg/injection, schedule: Q01DX009 (ip), vehicle: saline with Tween-80): 105 % of control
T/C (dose: 50.0 mg/kg/injection, schedule: Q01DX005 (ip), vehicle: saline): 99 % of control
T/C (dose: 50.0 mg/kg/injection, schedule: Q01DX009 (ip), vehicle: other): 100 % of control and 107 % of control
T/C [6]: 107 % of control
T/C (dose: 75.0 mg/kg/injection, schedule: Q01DX009 (ip), vehicle: Klucel (hydroxypropylcellulose) (HPC)): 103 % of control
T/C (dose: 75.0 mg/kg/injection, schedule: Q01DX009 (ip), vehicle: other): 98 % of control and 94 % of control
T/C (dose: 80.0 mg/kg/injection, schedule: Q01DX009 (ip), vehicle: saline with Tween-80): 100 % of control and 114 % of control
T/C (dose: 100.0 mg/kg/injection, schedule: Q01DX005 (ip), vehicle: saline): 107 % of control
T/C (dose: 100.0 mg/kg/injection, schedule: Q01DX009 (ip), vehicle: other): 100 % of control and 107 % of control
T/C [7]: 108 % of control
T/C [8]: 102 % of control
T/C (dose: 150.0 mg/kg/injection, schedule: Q01DX009 (ip), vehicle: other): 103 % of control and 106 % of control
T/C (dose: 160.0 mg/kg/injection, schedule: Q01DX009 (ip), vehicle: saline with Tween-80): 99 % of control and 102 % of control
T/C (dose: 200.0 mg/kg/injection, schedule: Q01DX005 (ip), vehicle: saline): 101 % of control
T/C (dose: 200.0 mg/kg/injection, schedule: Q01DX009 (ip), vehicle: other): 110 % of control
T/C [9]: 112 % of control
T/C (dose: 225.0 mg/kg/injection, schedule: Q01DX009 (ip), vehicle: other): 109 % of control
T/C (dose: 320.0 mg/kg/injection, schedule: Q01DX009 (ip), vehicle: saline with Tween-80): 106 % of control and 97 % of control
T/C (dose: 400.0 mg/kg/injection, schedule: Q01DX005 (ip), vehicle: saline): 103 % of control
T/C (dose: 400.0 mg/kg/injection, schedule: Q01DX009 (ip), vehicle: saline): 108 % of control
T/C (dose: 800.0 mg/kg/injection, schedule: Q01DX009 (ip), vehicle: saline): 108 % of control

CC1(C)CC(C)(C)C([Se]C2=C(O)C(=O)C(C)(C)CC2(C)C)=C(O)C1=O
T/C [6]: 100 % of control
T/C [7]: 101 % of control
T/C (dose: 200.0 mg/kg/injection, schedule: Q01DX009 (ip), vehicle: saline with Tween-80): 94 % of control

Cc1cc(O)c(CO)cc1C
T/C [10]: 104 % of control
T/C [11]: 110 % of control
T/C (dose: 400.0 mg/kg/injection, schedule: Q04DX002 (ip), vehicle: saline with Tween-80): 107 % of control

O=c1[nH]c2c(c3c1CCCC3)CC1(CC2)OCCO1
T/C (dose: 100.0 mg/kg/injection, schedule: Q04DX002 (ip), vehicle: Klucel (hydroxypropylcellulose) (HPC)): 105 % of control
T/C (dose: 200.0 mg/kg/injection, schedule: Q04DX002 (ip), vehicle: Klucel (hydroxypropylcellulose) (HPC)): 100 % of control
T/C (dose: 400.0 mg/kg/injection, schedule: Q04DX002 (ip), vehicle: Klucel (hydroxypropylcellulose) (HPC)): 108 % of control

COc1cccc2c1C(=O)c1c(O)c3c(c(O)c1C2=O)C[C@@](O)(C(C)=O)C[C@@H]3OC1CC(N(CCO)Cc2ccccc2)C(O)C(C)O1 (stereo partly specified)
T/C (dose: 4.0 mg/kg/injection, schedule: Q04DX003 (ip), vehicle: water): 105 % of control
T/C (dose: 8.0 mg/kg/injection, schedule: Q04DX003 (ip), vehicle: water): 113 % of control
T/C (dose: 12.5 mg/kg/injection, schedule: Q04DX003 (ip), vehicle: water): 114 % of control
T/C (dose: 32.0 mg/kg/injection, schedule: Q04DX003 (ip), vehicle: water): 155 % of control
T/C (dose: 50.0 mg/kg/injection, schedule: Q04DX003 (ip), vehicle: water): 172 % of control
T/C (dose: 64.0 mg/kg/injection, schedule: Q04DX003 (ip), vehicle: water): 179 % of control
T/C (dose: 100.0 mg/kg/injection, schedule: Q04DX003 (ip), vehicle: water): 223 % of control
T/C (dose: 128.0 mg/kg/injection, schedule: Q04DX003 (ip), vehicle: water): 240 % of control
T/C (dose: 200.0 mg/kg/injection, schedule: Q04DX003 (ip), vehicle: water): 124 % of control

O=C(NC(=O)c1cc2cc(Cl)cc(Cl)c2oc1=O)Oc1ccccc1
T/C (dose: 50.0 mg/kg/injection, schedule: Q01DX005 (ip), vehicle: saline with Tween-80): 89 % of control
T/C (dose: 100.0 mg/kg/injection, schedule: Q01DX005 (ip), vehicle: saline with Tween-80): 91 % of control
T/C (dose: 200.0 mg/kg/injection, schedule: Q01DX005 (ip), vehicle: saline with Tween-80): 98 % of control

CCC1NN1C(C)C (stereo unspecified)
T/C (dose: 50.0 mg/kg/injection, schedule: Q04DX002 (ip), vehicle: saline with Tween-80): 100 % of control
T/C [10]: 95 % of control
T/C [11]: 107 % of control

CNC(=O)/C=C/C1=CN2C(=O)c3ccc(C)c(O)c3NC(OC)C2C1 (stereo unspecified)
T/C (dose: 0.01 mg/kg/injection, schedule: Q01DX009 (ip), vehicle: suspension in saline): 102 % of control and 115 % of control
T/C (dose: 0.02 mg/kg/injection, schedule: Q01DX009 (ip), vehicle: suspension in saline): 116 % of control
T/C (dose: 0.05 mg/kg/injection, schedule: Q01DX009 (ip), vehicle: saline): 121 % of control
T/C (dose: 0.05 mg/kg/injection, schedule: Q01DX009 (ip), vehicle: suspension in saline): 120 % of control
T/C (dose: 0.2 mg/kg/injection, schedule: Q01DX009 (ip), vehicle: saline): 92 % of control
T/C (dose: 0.2 mg/kg/injection, schedule: Q01DX009 (ip), vehicle: suspension in saline): 97 % of control

COP(=O)(O)/C(=N/NS(=O)(=O)c1ccc(C)cc1)c1ccccc1
T/C (dose: 12.5 mg/kg/injection, schedule: Q01DX009 (ip), vehicle: water): 96 % of control
T/C (dose: 25.0 mg/kg/injection, schedule: Q01DX009 (ip), vehicle: water): 96 % of control
T/C (dose: 50.0 mg/kg/injection, schedule: Q01DX009 (ip), vehicle: water): 93 % of control
T/C (dose: 100.0 mg/kg/injection, schedule: Q01DX009 (ip), vehicle: water): 98 % of control
T/C (dose: 200.0 mg/kg/injection, schedule: Q01DX009 (ip), vehicle: water): 98 % of control
T/C (dose: 400.0 mg/kg/injection, schedule: Q01DX009 (ip), vehicle: water): 97 % of control

CNC(=O)Oc1ncccc1[N+](=O)[O-]
T/C [12]: 98 % of control and 117 % of control
T/C [8]: 107 % of control and 119 % of control
T/C [9]: 98 % of control and 88 % of control

Nc1c(I)cc(CC(N)C(=O)O)cc1I (stereo unspecified)
T/C [12]: 94 % of control
T/C [8]: 86 % of control
T/C [9]: 89 % of control
